Each structure is given as a SMILES string.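 Dose response: 5 concentrations. Exposure: 48 h. Format: 96-well plates. Endpoint: linear interpolation; highest concentration if not reached. GI50 marks 50% less growth. TGI marks complete inhibition of growth.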 Bounds are passed on as bounds.

The test system of the first experiment is EKVX NSCLC. The experiment is described as follows: inhibition of tumour cell growth, NCI panel, 48 h.
In turn, `CC(C)(C)C(=O)C(CC(=O)c1ccccc1)C(=O)C(C)(C)C` yielded a TGI of over 100 µM.

`COC(=O)c1cc(CC(C)C)c2c(c1)[nH]c1ccccc12` showed a TGI of over 100 µM.

As for `Clc1nc(Cl)nc(NC23CC4CC(CC(C4)C2)C3)n1`, the TGI was determined as 37.4 µM.

`CCOC(=O)c1cc2c([N+](=O)[O-])c(NC(C)=O)ccc2s1` had a TGI of 98 µM.

As for `C[N+](C)(C)CC(=O)N/N=c1\cc(C(=O)Nc2ccc(N=O)cc2C#N)oc2cc(O)ccc12`, the TGI was over 100 µM.

`CCOC(=O)c1cc(=C2\CCN(CC(C)CC)C2=S)/c(=C(/O)CC)[nH]1` (centres undefined) registered a TGI of 35.3 µM.

As to `Cc1ccc2c(c1C)CC1(Cc3c(ccc4c3CCC4)C1=O)C2=O` (centres undefined), the TGI is over 100 µM.

On to `N#CCCN(c1ccc(C=Nc2cccc([N+](=O)[O-])c2)cc1)S(=O)(=O)c1ccccc1`, for which the TGI was over 100 µM.

On to `COc1cc2oc(-c3ccc(O)cc3)c(OC3OC(C)C(O)C(O)C3O)c(=O)c2c(O)c1OC` (centres undefined), for which the TGI is over 100 µM.

`CCCCc1c(O)nc(Nc2nc3ccccc3[nH]2)[nH]c1=O` had a TGI of over 100 µM.

`O=C1CC2(C[C@@H]3CCCCCCCCC[C@@H](C3)C2)N1` (some centres undefined) registered a TGI of 28.2 µM.

Take `Cc1c(S(=O)(=O)c2ccccc2)c(N)n(Cc2ccccc2)c1C`: the TGI is over 100 µM.

Regarding `N#CC1=C(N)OC2=C(CSc3ccccc32)C1c1ccc(Br)cc1` (centres undefined), the TGI was found to be 11.4 µM.

In turn, `CC(C)(C)OC(=O)NC(C)(C)C(=O)NCCC(=O)O` showed a TGI of over 100 µM.

In turn, `COc1ccc(C2C(Cl)C(=O)N2NC(=O)c2ccc(NC(C)=O)cc2)cc1` (centres undefined) came in with a TGI of over 100 µM.

Molecule `C=CCN(CC=C)Cn1c(=S)sc2ccccc21` displayed a TGI of over 100 µM.

Molecule `O=C1O[C@@H](c2ccccc2)C[C@@H]1CN1CCOCC1` showed a TGI of over 100 µM.

The molecule `CCOC(=O)c1c(NC(=O)c2ccccc2)sc2c1CCCC2` displayed a TGI of over 100 µM.

Molecule `CCOC(=O)C(OCC1CC=CCC1)Sc1ccccc1` (centres undefined) returned a TGI of over 100 µM.

Take `c1cc(-c2cnc(-c3ccc4c(c3)CCCO4)o2)ccn1`: the TGI turned out to be 40.5 µM.

The subject of a further experiment is HCT-116 colon. As to the kind of experiment: inhibition of tumour cell growth, NCI panel, 48 h.
The molecule `Cc1ccc2c(c1)nc(N)n[n+]2[O-]` showed a TGI of over 100 µM.

`Cc1cn(C2CC(N)C(CN)O2)c(=O)[nH]c1=O` (centres undefined) came in with a TGI of over 100 µM.

`CC(C)CC(N)C(=O)OCN1C(=O)C2C3C=CC(C2C1=O)C1C2C(=O)N(COC(=O)C(N)CC(C)C)C(=O)C2C31` (centres undefined) displayed a TGI of over 60.5 µM.

`O=C1CC(O)c2c1csc2Br` (centres undefined) returned a TGI of 49.1 µM.

`CCCCCCCCCC[C@@H](O)[C@H]1CC[C@H]([C@H]2CC[C@H]([C@H](O)CCCCCCCCCC[C@@H]3CC(CC(C)=O)C(=O)O3)O2)O1` (some centres undefined): the GI50 is 1.32 µM and the TGI was over 37.2 µM.

`CC(C)(C)C(=O)C(CC(=O)c1ccccc1)C(=O)C(C)(C)C` returned a TGI of over 100 µM.

In turn, `COC(=O)c1cc(CC(C)C)c2c(c1)[nH]c1ccccc12` gave a TGI of over 100 µM.

Consider `Clc1nc(Cl)nc(NC23CC4CC(CC(C4)C2)C3)n1`, for which the TGI is 31.3 µM.

Molecule `CCOC(=O)c1cc2c([N+](=O)[O-])c(NC(C)=O)ccc2s1` registered a TGI of over 100 µM.

The molecule `C[N+](C)(C)CC(=O)N/N=c1\cc(C(=O)Nc2ccc(N=O)cc2C#N)oc2cc(O)ccc12` displayed a TGI of over 100 µM.

In turn, `CCOC(=O)c1cc(=C2\CCN(CC(C)CC)C2=S)/c(=C(/O)CC)[nH]1` (centres undefined) displayed a TGI of 28.7 µM.

With `Cc1ccc2c(c1C)CC1(Cc3c(ccc4c3CCC4)C1=O)C2=O` (centres undefined), the TGI is over 100 µM.

Consider `N#CCCN(c1ccc(C=Nc2cccc([N+](=O)[O-])c2)cc1)S(=O)(=O)c1ccccc1`, for which the TGI is over 100 µM.

In the case of `COc1cc2oc(-c3ccc(O)cc3)c(OC3OC(C)C(O)C(O)C3O)c(=O)c2c(O)c1OC` (centres undefined), the TGI is over 100 µM.

Molecule `CCCCc1c(O)nc(Nc2nc3ccccc3[nH]2)[nH]c1=O` came in with a TGI of over 100 µM.

Molecule `O=C1CC2(C[C@@H]3CCCCCCCCC[C@@H](C3)C2)N1` (some centres undefined) had a TGI of 33.6 µM.

As for `Cc1c(S(=O)(=O)c2ccccc2)c(N)n(Cc2ccccc2)c1C`, the TGI is over 100 µM.

Molecule `N#CC1=C(N)OC2=C(CSc3ccccc32)C1c1ccc(Br)cc1` (centres undefined) returned a TGI of 14.2 µM.

`COc1ccc(C2C(Cl)C(=O)N2NC(=O)c2ccc(NC(C)=O)cc2)cc1` (centres undefined) registered a TGI of over 100 µM.

The molecule `C=CCN(CC=C)Cn1c(=S)sc2ccccc21` registered a TGI of over 100 µM.

Consider `CCOC(=O)c1c(NC(=O)c2ccccc2)sc2c1CCCC2`, for which the TGI is over 100 µM.

In turn, `CCOC(=O)C(OCC1CC=CCC1)Sc1ccccc1` (centres undefined) displayed a TGI of over 100 µM.

With `c1cc(-c2cnc(-c3ccc4c(c3)CCCO4)o2)ccn1`, the TGI was 31.6 µM.

The next experiment relates to U251 CNS. As to the kind of experiment: inhibition of tumour cell growth, NCI panel, 48 h.
`Cc1ccc2c(c1)nc(N)n[n+]2[O-]` had a TGI of over 100 µM.

`Cc1cn(C2CC(N)C(CN)O2)c(=O)[nH]c1=O` (centres undefined) had a TGI of over 100 µM.

`CC(C)CC(N)C(=O)OCN1C(=O)C2C3C=CC(C2C1=O)C1C2C(=O)N(COC(=O)C(N)CC(C)C)C(=O)C2C31` (centres undefined) showed a TGI of over 100 µM.

As to `O=C1CC(O)c2c1csc2Br` (centres undefined), the TGI worked out at 41 µM.

On to `CCCCCCCCCC[C@@H](O)[C@H]1CC[C@H]([C@H]2CC[C@H]([C@H](O)CCCCCCCCCC[C@@H]3CC(CC(C)=O)C(=O)O3)O2)O1` (some centres undefined), for which the GI50 was 7.12 µM and the TGI is over 50 µM.

As to `CC(C)(C)C(=O)C(CC(=O)c1ccccc1)C(=O)C(C)(C)C`, the TGI is over 100 µM.

Molecule `COC(=O)c1cc(CC(C)C)c2c(c1)[nH]c1ccccc12` gave a TGI of over 100 µM.

On to `Clc1nc(Cl)nc(NC23CC4CC(CC(C4)C2)C3)n1`, for which the TGI turned out to be 30.5 µM.

Take `CCOC(=O)c1cc2c([N+](=O)[O-])c(NC(C)=O)ccc2s1`: the TGI is over 100 µM.

As to `C[N+](C)(C)CC(=O)N/N=c1\cc(C(=O)Nc2ccc(N=O)cc2C#N)oc2cc(O)ccc12`, the TGI is over 100 µM.

On to `CCOC(=O)c1cc(=C2\CCN(CC(C)CC)C2=S)/c(=C(/O)CC)[nH]1` (centres undefined), for which the TGI was 26.5 µM.

`Cc1ccc2c(c1C)CC1(Cc3c(ccc4c3CCC4)C1=O)C2=O` (centres undefined) showed a TGI of over 100 µM.

The molecule `COc1cc2oc(-c3ccc(O)cc3)c(OC3OC(C)C(O)C(O)C3O)c(=O)c2c(O)c1OC` (centres undefined) returned a TGI of over 100 µM.

As to `CCCCc1c(O)nc(Nc2nc3ccccc3[nH]2)[nH]c1=O`, the TGI was over 100 µM.

As for `O=C1CC2(C[C@@H]3CCCCCCCCC[C@@H](C3)C2)N1` (some centres undefined), the TGI was determined as 30.3 µM.

In the case of `Cc1c(S(=O)(=O)c2ccccc2)c(N)n(Cc2ccccc2)c1C`, the TGI was over 100 µM.

Turning to `N#CC1=C(N)OC2=C(CSc3ccccc32)C1c1ccc(Br)cc1` (centres undefined), the TGI worked out at 19.9 µM.

Take `CC(C)(C)OC(=O)NC(C)(C)C(=O)NCCC(=O)O`: the TGI is over 100 µM.

The molecule `COc1ccc(C2C(Cl)C(=O)N2NC(=O)c2ccc(NC(C)=O)cc2)cc1` (centres undefined) displayed a TGI of over 100 µM.

`C=CCN(CC=C)Cn1c(=S)sc2ccccc21` displayed a TGI of over 100 µM.

The molecule `O=C1O[C@@H](c2ccccc2)C[C@@H]1CN1CCOCC1` showed a TGI of over 100 µM.

As for `CCOC(=O)c1c(NC(=O)c2ccccc2)sc2c1CCCC2`, the TGI was over 100 µM.

For the molecule `CCOC(=O)C(OCC1CC=CCC1)Sc1ccccc1` (centres undefined), the TGI was over 100 µM.

As to `c1cc(-c2cnc(-c3ccc4c(c3)CCCO4)o2)ccn1`, the TGI is 78.5 µM.

The record behind these values is PubChem BioAssay (NCI).
